# Source: patent US5466716A, “Liposomal trimethylsphingosine” (The Biomembrane Institute, priority 1994, dated 1995)
# Where two headings read alike, the source gives them in different places.
# Key:
# Type in all cases: cell-based, human
# [1] = test system: phosphoinositide turnover; assay: fMLP-induced phosphoinositide turnover in neutrophils (32P incorporation); details: for activity at 5 µM: Homo sapiens, Neutrophil, Table VI, 5 μM effector plus fMLP, control 100, read-out: PIP labeling
# Method: Amount of ^32 P in PIP and PIP2 was measured using TLC separation. The spots on TLC plates were scraped off and the radioactivity therein was measured with a Beckman scintillation counter. Each spot was compared as to intensity with the identical spot of the control sample.
# After incubation, the cells were washed and resuspended in the same buffer at a concentration of 1×10^7 cells/ml. Each suspension (1 ml) then was pretreated with TMS, SPN or DMS, or equal volume of 50% ethanol, for 10 min at 37° C. Then keeping the same temperature, fMLP was added to a final concentration of 1.0 μM. Two minutes later, the reaction was terminated by adding 3.75 ml of chloroform/methanol (1:2) to each cell suspension, followed by sonication for 15 min. An additional 1.25 ml of chloroform, 1.25 ml of water and 50 μl of acetone were added and the total mixture was mixed and left overnight.
# Following centrifugation of the mixture, the phospholipids were extracted by Folch's partition method, taking the lower phase from the cell lysate. […] The TLC plate was developed with control phospholipids, in a solvent comprising chloroform/methanol/4M NaOH at a ratio of 45:35:10 and containing 0.1% CDTA (trans-1,2-diaminocyclohexane-N,N,N',N'-tetraacetic acid) for 65 min at 37° C. The bands were identified by staining the control phospholipids with primuline and visualization under ultraviolet light. Autoradiography was performed with Kodak diagnostic film GBX-2 (Rochester N.Y.) by exposing overnight at 37° C.
# neutrophils = assay: neutrophil transmigration through HUVEC monolayer
# Method: A characteristic of neutrophils is the ability to adhere to activiated EC's and to migrate through the EC monolayer into the vascular or extravascular matrix. The effect of TMS on neutrophil interactions with EC's and their subsequent trans-endothelial migration thereof can be monitored in vitro using human umbilical endothelial cells (HUVEC's) (Luscinskas et al., J. Imm., 146, 1617, 1991). Neutrophils are added to a HUVEC monolayer and neutrophil-HUVEC interactions are assessed microscopically following fixation, embedding and staining of monolayer sections.
# Cross-sections (2 μm) of the collagen bed with HUVEC's and neutrophils
# were observed using a Zeiss light microscope with KPL W10 ahd Ph2 Neoflua
# 16 lenses. The number of cells transmigrated were counted for each view.
# HUVEC's and culture media were purchased from Cell Systems (Kirkland, Wash.). The cells were maintained and cultured as described in Luscinskas et al., supra, with some modifications. Briefly, HUVEC's were maintained in 10 ml tissue culture flasks on a collagen type I bed obtained from rat tail (Upstate Biotechnology Inc, Lake Placid, N.Y.) with CS-complete medium, CS-growth factor and CS-AF-1 (Cell Systems). Cells became confluent within 2 to 4 days when incubated in 5% CO2 at 37° C.
# For the transmigration assay, thick gels were formed in 24-well tissue culture plates. Preparation of the gel solution was carried out at 4° C. Eight parts of collagen solution (Vitrogen 100, from bovine tendon which contained less than 5 ng/ml endotoxin; Celtrix Labs, Palo Alto, Calif.), one part of 10×RPMI and one part of alkaline solution (2.2 g NaHCO3 in 100 ml of 0.05N NaOH and 200 mM HEPES) were mixed gently and distributed at 0.7 ml/well. The solution was left for 4 hr at 37° C. to eliminate air bubbles, then allowed to gel in a 37° C. oven for 3 hr. The wells were washed with 1.0 ml of CS-complete medium with attachment factors at least 4 times and every 3 to 6 hr during further incubation at 37° C. in 5% CO2.
# HUVEC's at a passage level of less than 3 were detached from 10 ml tissue culture flasks with 3 ml of Trypsin-EDTA at 37° C. for 30 to 60 sec. Immediately, 3 ml of M199 with 20% heat-inactivated FCS was added. Cells were collected by centrifugation. The pellet was resuspended in 10 ml of CS-complete medium with attachment factors. Homogeneous cell suspensions were plated at 0.7 ml to each well and the plates were incubated for 3 hr at 37° C. The supernatant, which contains dead cells, was aspirated carefully and fresh complete medium with attachment factors was added.
# The HUVEC monolayer in 24-well tissue culture plates were washed with M199 without FCS, then incubated with 1 ml/well of IL-1β (Boehringer Mannheim Biochemical Products, Indianapolis, Ind.) dissolved in M199 with 1% heat-inactivated FCS (HIFCS) at 10 U/ml. The plates were incubated at 37° C., 5% CO2 for 4 hr then washed gently with 1 ml of M199. The purified neutrophil suspension (1.5×10^6 cells/ml) in M199 containing 1% HIFCS was pre-incubated with TMS, or other effectors, for 10 min at 37° C. After aspirating the media in the well, 0.5 ml of the neutrophil suspension were added onto the HUVEC monolayer. The tissue culture plate was incubated for 90 min at 37° C.
# The culture was terminated by gently aspirating the cell suspension, adding 1 ml of 10% formaldehyde in PBS and stored at 4° C. overnight for fixation. The edge of the collagen bed was cut with a small spatula along the wall 2 hr before removal from the well. The collagen bed, which has HUVEC's on the surface and transmigrated neutrophils within was embedded in paraffin, sectioned and followed by staining with hematoxylin-eosin for microscopic examination.
# [2] = test system: 47 kDa and 65 kDa proteins; assay: PMA-induced phosphorylation of 47 kDa and 65 kDa neutrophil proteins; details: for phosphorylation of 47 kDa and 65 kDa proteins / time in which inhibitory effect on phosphorylation is observed: 15-45 μM; for phosphorylation of 47 kDa and 65 kDa proteins: PMA 1.5 μM; for time in which inhibitory effect on phosphorylation is observed: incubation
# Method: Excess unbound components were removed by centrifugation and the pellets were resuspended in the same buffer, repeating twice. The cells then were divided into 7 treatment groups, each containing ≈1×10^7 cells in a total volume of 0.4 ml. […] Two minutes later, the reaction was terminated by adding 0.1 ml of Laemmli's sample buffer and 20 mM EDTA, followed by heating at 100° C. for 5 min. Aliquots were separated through 10% sodium dodecyl sulfate gels using known procedures. ^32 P incorporation was visualized by autoradiography.
compound,measurement,setting,value
"CCCCCCCCCCCCC/C=C/[C@@H](O)[C@@H](N)CO [SPN, sphingosine]",activity at 5 µM,[1],174 ± 37%
same,activity at 15 µM,"neutrophils; Homo sapiens, Neutrophil, 1.5 h, read-out: Number of Cells/View",36 ± 12%
same,phosphorylation of 47 kDa and 65 kDa proteins,[2],diminished significantly
same,time in which inhibitory effect on phosphorylation is observed,[2],≤ 2 min
"CCCCCCCCCCCCC/C=C/[C@@H](O)[C@H](CO)N(C)C [DMS, (4E)-N,N-dimethyl-D-erythro-sphingosine]",activity at 5 µM,[1],146 ± 27%
same,phosphorylation of 47 kDa and 65 kDa proteins,[2],diminished significantly
same,time in which inhibitory effect on phosphorylation is observed,[2],≤ 2 min
"CCCCCCCCCCCCC/C=C/[C@@H](O)[C@H](CO)[N+](C)(C)C [TMS, N,N,N-trimethylsphingosine]","suppression of fMLP-dependent enhancement of 32P incorporation into PI, PIP and PIP2","[1]; 5 μM, fMLP 1 μM",suppressed strongly
same,fMLP induced phosphorylation of phosphotidyl inositols,[1]; Example 8,suppressed
same,activity at 5 µM,[1],127 ± 19%
same,inhibition of neutrophil migration,neutrophils; 8 μM pre-treatment,inhibited strongly
same,number of cells migrating through the EC monolayer,neutrophils; 15 μM,greatly reduces the number of cells migrating
same,inhibition of neutrophil migration,neutrophils; 25 μM pre-treatment,completely inhibited
same,neutrophil migration (transmigration),neutrophils; Example 10,affected neutrophil migration
same,activity at 4 µM,"neutrophils; Homo sapiens, Neutrophil, 1.5 h, Table II, 4 μM, control 100, read-out: neutrophil transmigration (number of cells transmigrated)",96 ± 18%
same,activity at 8 µM,"neutrophils; Homo sapiens, Neutrophil, 1.5 h, Table II, 8 μM, control 100, read-out: neutrophil transmigration (number of cells transmigrated)",66 ± 28%
same,activity at 15 µM,"neutrophils; Homo sapiens, Neutrophil, 1.5 h, Table II, 15 μM, control 100, read-out: neutrophil transmigration (number of cells transmigrated)",41 ± 8.7%
same,activity at 25 µM,"neutrophils; Homo sapiens, Neutrophil, 1.5 h, Table II, 25 μM, control 100, read-out: neutrophil transmigration (number of cells transmigrated)",6.8 ± 4.1%
same,activity at 45 µM,"neutrophils; Homo sapiens, Neutrophil, 1.5 h, Table II, 45 μM, control 100, read-out: neutrophil transmigration (number of cells transmigrated)",1.2 ± 1.2%
same,activity at 15 µM,"neutrophils; Homo sapiens, Neutrophil, 1.5 h, Table III, 15 μM, control 100, read-out: Number of Cells/View",39 ± 17%
same,phosphorylation of 47 kDa and 65 kDa proteins,[2],diminished significantly
same,phosphorylation of specific proteins related to protein kinase C,[2]; Example 7,had an affect on phosphorylation of specific proteins
same,time in which inhibitory effect on phosphorylation is observed,[2],≤ 2 min
Calphostin C,Number of Cells/View,"neutrophils; Table III, 5 μM, control 100, 90 min",19 ± 8.9
